Literature values as cited in patent publication US6391849B1, “Method and pharmaceutical composition for disrupting lactation in a mammary gland and for treating and preventing mastitis” (Agricultural Research Organization, The Volcani Center, priority 1999, dated 2002).

Test system: mammary gland
Details: EGTA introduced into the mammary gland

## O=C(O)CN(CCOCCOCCN(CC(=O)O)CC(=O)O)CC(=O)O [EGTA]
  TJ integrity: transient loss
  milk yield: transient reduction
